“And” between values parts separate entries of the source, which are not always exact repeats. Equal entries are not always repeated. “Also recorded” adds a separate entry of the source.
Tests used:
[1] = tested on: 25-hydroxylation of vitamin D3; settings: high doses required; cited from earlier work
[2] = tested on: enzymatic 25-hydroxylation of vitamin D3 (microsomal enzyme system from rat liver); assay: in vitro 25-hydroxylation of vitamin D3 in rat liver microsomal enzyme system; format: biochemical
Procedure: Male rats, obtained as weanlings (Holtzman, Madison, WI) were maintained on a vitamin D-deficient 0.5% calcium and 0.3% phosphorus diet for 4-6 weeks prior to use for in vitro 25-hydroxylation assays. Animals were fasted 18 h to deplete glycogen stores prior to study.
The microsomes were prepared by the method of Madhok and DeLuca (Biochem. J. 184, 491 (1979)). Livers were homogenized in 3 vol of 0.25M sucrose using a Potter-Elvehjem homogenizer fitted with a Teflon pestle. All centrifugation steps were done using a type 30 rotor and a Beckman L5-50 ultracentrifuge (Beckman Instruments, Lincolnwood, Ill.). […]
The work-up of the incubation mixture involved separation of the organic phase, and evaporation of solvent; the residue was then taken up in hexane:CHCl3 :MeOH (90:10:5) and applied to a Sephadex LH-20 column (Pharmacia, Piscataway, N.J.) (0.7×12 cm). […] The radioactivity in the 25-OH-D3region was used as a measure of enzyme activity and the UV peak (254 nm) as a measure of recovery. Radioactivity was determined on a Packard Instruments 3255 liquid scintillation counter using a toluene counting solution with 0.4% p-bis-[2-(5-phenyloxazolyl)]-benzene and 0.03% dimethyl-1,4-bis-[2-(5-phenyloxazolyl)]-benzene. […] The enzyme activity was expressed as picomole product (25-OH-D3) produced per milligram protein per 2 hours.

| Compound | inhibition of 25-hydroxylation of vitamin D3 by known antagonists (in words) [1] | 25-OH-D3 Formation ([2]; [S] 200 nM vitamin D3, [I] 500 nM, inhibitor preincubated at 37° C. for 10 min, controls without inhibitor 0.46, 0.24, 0.36) | inhibition of 25-OH-D3 formation from vitamin D3 (in words) ([2]; rat liver microsomal system, 500 nM inhibitor, 2.5 times the substrate concentration) |
| --- | --- | --- | --- |
| CC(C)CCC[C@@H](C)[C@H]1CC[C@H]2/C(=C/C=C3/C[C@@H](O)CCC3CO)CCC[C@]12C (stereo partly drawn) [19-hydroxy-10,19-dihydro-vitamin D3] | partial inhibition | – | – |
| C=C1CC[C@H](O)C/C1=C/C=C1\CCC[C@]2(C)[C@@H]([C@H](C)CCC(=NO)C(C)C)CC[C@@H]12 [24-(NOH)D3, vitamin D3-24-oxime] | – | 0.09 pmol/2h/mg protein and 0.05 pmol/2h/mg protein | markedly suppressed; also recorded: dramatically suppresses |
